Laboratory results taken from the NIST ThermoML archive (doi:10.1016/j.jct.2011.07.006).

Assay: xn = mol fraction of the nth substance listed
Settings: Gas, Buoyancy - hydrostatic balance with magnetic suspension - one sinker

N#N [nitrogen] + O=C=O
mass density [kg/m3]
Settings	x2 = 0.1001	x2 = 0.1505
250.04 K, 12011 kPa	188.824	–
250.04 K, 14015 kPa	220.196	–
250.04 K, 16024 kPa	250.228	–
250.04 K, 18041 kPa	278.626	–
250.04 K, 19866 kPa	302.682	–
250.05 K, 1985.1 kPa	29	–
250.05 K, 3997.3 kPa	59.733	–
250.05 K, 5998.8 kPa	91.41	–
250.05 K, 8000 kPa	123.81	–
250.05 K, 10007 kPa	156.529	–
250.06 K, 1944.1 kPa	–	29.337
250.06 K, 3982.7 kPa	–	61.879
250.06 K, 5984.1 kPa	–	95.441
250.06 K, 7996.2 kPa	–	130.387
250.06 K, 16016 kPa	–	267.875
250.06 K, 18019 kPa	–	298.361
250.06 K, 19997 kPa	–	326.225
250.07 K, 10003 kPa	–	165.836
250.07 K, 12006 kPa	–	201.013
250.07 K, 14014 kPa	–	235.308
275.01 K, 6002 kPa	80.825	–
275.01 K, 7997.9 kPa	108.505	–
275.02 K, 1988.5 kPa	–	26.992
275.02 K, 3997.1 kPa	53.276	–
275.02 K, 4000.6 kPa	–	55.255
275.02 K, 5998 kPa	–	84.088
275.02 K, 7994.3 kPa	–	113.405
275.02 K, 10004 kPa	136.29	–
275.02 K, 12009 kPa	163.678	–
275.02 K, 14013 kPa	190.433	–
275.02 K, 16022 kPa	216.33	–
275.02 K, 18057 kPa	241.448	–
275.02 K, 19841 kPa	262.442	–
275.03 K, 9995.5 kPa	–	142.952
275.03 K, 12000 kPa	–	172.315
275.03 K, 14001 kPa	–	201.02
275.03 K, 15981 kPa	–	228.492
275.03 K, 17994 kPa	–	255.193
275.03 K, 19983 kPa	–	280.214
299.96 K, 17994 kPa	–	224.784
299.96 K, 19165 kPa	226.098	–
299.96 K, 19977 kPa	–	247.119
299.97 K, 1992.1 kPa	–	24.615
299.97 K, 1997.9 kPa	23.945	–
299.97 K, 3982.3 kPa	–	49.692
299.97 K, 3996.5 kPa	48.22	–
299.97 K, 5996.4 kPa	72.692	–
299.97 K, 5999.2 kPa	–	75.467
299.97 K, 7999.7 kPa	97.214	–
299.97 K, 8007.8 kPa	–	101.3
299.97 K, 10002 kPa	121.553	–
299.97 K, 10003 kPa	–	126.921
299.97 K, 12006 kPa	145.55	–
299.97 K, 12008 kPa	–	152.379
299.97 K, 13991 kPa	–	177.09
299.97 K, 14010 kPa	169.025	–
299.97 K, 15969 kPa	–	201.068
299.97 K, 16014 kPa	191.829	–
299.97 K, 17869 kPa	212.244	–
324.98 K, 1996 kPa	21.979	–
324.98 K, 1996.1 kPa	–	22.645
324.98 K, 3995.9 kPa	–	45.557
324.98 K, 3996.2 kPa	44.111	–
324.98 K, 5991.8 kPa	66.201	–
324.98 K, 5996.6 kPa	–	68.599
324.98 K, 7997.6 kPa	–	91.632
324.98 K, 8019.2 kPa	88.521	–
324.98 K, 9996.9 kPa	–	114.495
324.98 K, 9998.9 kPa	110.087	–
324.98 K, 11991 kPa	–	137.002
324.98 K, 11999 kPa	131.525	–
324.98 K, 13983 kPa	152.335	–
324.98 K, 14014 kPa	–	159.405
324.98 K, 16001 kPa	172.971	–
324.98 K, 16006 kPa	–	180.933
324.98 K, 18001 kPa	192.79	–
324.98 K, 18016 kPa	–	202.007
324.98 K, 19621 kPa	208.36	–
324.98 K, 19978 kPa	–	221.898
349.96 K, 1996.1 kPa	20.34	–
349.96 K, 3996.6 kPa	40.709	–
349.96 K, 5996.7 kPa	60.978	–
349.97 K, 1995.9 kPa	–	20.947
349.97 K, 3995.3 kPa	–	41.993
349.97 K, 5996.9 kPa	–	63.049
349.97 K, 7995.4 kPa	–	83.959
349.97 K, 7995.8 kPa	81.051	–
349.97 K, 9997.5 kPa	100.892	–
349.97 K, 9999.5 kPa	–	104.724
349.97 K, 11998 kPa	120.373	125.127
349.97 K, 13995 kPa	139.425	–
349.97 K, 14004 kPa	–	145.221
349.97 K, 16000 kPa	158.084	–
349.97 K, 16008 kPa	–	164.842
349.97 K, 17994 kPa	176.127	–
349.97 K, 18008 kPa	–	183.902
349.97 K, 19378 kPa	188.339	–
349.97 K, 19983 kPa	–	202.168
374.95 K, 1963.6 kPa	–	19.172
374.95 K, 3953.7 kPa	–	38.571
374.95 K, 5995.6 kPa	–	58.378
374.95 K, 7997.3 kPa	–	77.627
374.95 K, 9986.3 kPa	–	96.527
374.95 K, 11945 kPa	–	114.852
374.96 K, 13990 kPa	–	133.615
374.96 K, 15999 kPa	–	151.646
374.96 K, 17992 kPa	–	169.101
374.96 K, 19972 kPa	–	185.971
374.97 K, 1974.6 kPa	18.733	–
374.97 K, 3962.2 kPa	37.494	–
374.97 K, 5994.5 kPa	56.518	–
374.97 K, 7989.9 kPa	74.983	–
374.97 K, 9982.5 kPa	93.148	–
374.97 K, 11981 kPa	111.044	–
374.97 K, 13972 kPa	128.504	–
374.97 K, 15966 kPa	145.587	–
374.98 K, 17960 kPa	162.237	–
374.98 K, 18719 kPa	168.45	–
400.02 K, 1995.3 kPa	–	18.223
400.02 K, 3995.7 kPa	–	36.397
400.02 K, 5995.4 kPa	–	54.424
400.02 K, 7991.2 kPa	–	72.219
400.02 K, 9990.8 kPa	–	89.804
400.02 K, 11986 kPa	–	107.065
400.02 K, 13988 kPa	–	124.054
400.02 K, 15977 kPa	–	140.583
400.02 K, 17818 kPa	–	155.538
400.03 K, 3994.9 kPa	35.321	–
400.03 K, 9992.9 kPa	86.844	–
400.04 K, 1995.9 kPa	17.722	–
400.04 K, 5992.1 kPa	52.72	–
400.04 K, 7980.9 kPa	69.818	–
400.04 K, 11987 kPa	103.403	–
400.04 K, 13992 kPa	119.725	–
400.04 K, 15984 kPa	135.572	–
400.04 K, 17815 kPa	149.796	–
400.04 K, 18908 kPa	158.136	–
